Test results from PubChem BioAssay (NCI).
Several values for one entry are separate records, joined by “and”; a condition that tells them apart may be missing. Identical values can stand only once.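 Dose response: 5 concentrations. Exposure: 48 h. Format: 96-well plates. Endpoint: linear interpolation; highest concentration if not reached. The concentration for full growth arrest is given as TGI.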

What was measured:
Assay in all cases: NCI-60 cell line screen, 48 h
CAKI-1 renal = tested on: CAKI-1 renal
PC-3 prostate = tested on: PC-3 prostate
OVCAR-4 ovarian = tested on: OVCAR-4 ovarian
BT-549 breast = tested on: BT-549 breast
NCI/ADR-RES ovarian = tested on: NCI/ADR-RES ovarian
OVCAR-3 ovarian = tested on: OVCAR-3 ovarian
RPMI-8226 leukemia = tested on: RPMI-8226 leukemia
786-0 renal = tested on: 786-0 renal
MDA-MB-435 = tested on: MDA-MB-435
ACHN renal = tested on: ACHN renal
HOP-92 NSCLC = tested on: HOP-92 NSCLC

| SMILES | TGI (CAKI-1 renal) | TGI (PC-3 prostate) [µM] | TGI (OVCAR-4 ovarian) | TGI (BT-549 breast) [µM] | TGI (NCI/ADR-RES ovarian) [µM] | TGI (OVCAR-3 ovarian) [µM] | TGI (RPMI-8226 leukemia) | TGI (786-0 renal) | TGI (MDA-MB-435) [µM] | TGI (ACHN renal) | TGI (HOP-92 NSCLC) |
| --- | --- | --- | --- | --- | --- | --- | --- | --- | --- | --- | --- |
| CSc1c(C(C)=O)c(O)n(-c2ccc(Cl)cc2)c(=O)c1C#N | 53.2 µM | > 100 | > 100 µM | > 100 | > 100 | > 100 | 99.2 µM | > 100 µM | > 100 | – | – |
| O=c1oc2ccccc2cc1-c1nc2ccc([N+](=O)[O-])cc2o1 | > 100 µM | > 100 | – | > 100 | > 100 | > 100 | > 100 µM | > 100 µM | > 100 | 80.9 µM | > 100 µM |
| NC1=NS(=O)(=O)N=C(N)C1=Cc1ccc([N+](=O)[O-])o1 | – | – | 34.1 µM | – | – | 32.4 | 70 µM | 30.8 µM | – | 30.6 µM | 26.7 µM |
| COc1ccc(/C=N/Nc2[nH]c(=S)nc3[nH]ncc23)cc1 | > 100 µM | > 100 | > 100 µM | > 100 | > 100 | > 100 | > 100 µM | > 100 µM | > 100 | > 100 µM | – |
| O=C1CCC2(CC1)Cc1ccccc1C2O (configuration not stated) | > 100 µM | > 100 | > 100 µM | > 100 | > 100 | – | – | > 100 µM | – | > 100 µM | – |
| O=S1(=O)NNC(=NCc2ccc(F)cc2)c2ccccc21 | > 100 µM | – | > 100 µM | > 100 | > 100 | > 100 | > 78.8 µM | > 100 µM | > 100 | > 100 µM | > 83.5 µM |
| O=C1CSC2(CC(/C=C/C=C/c3ccccc3)=NN2c2cccc(S(=O)(=O)O)c2)N1c1nc2ccccc2s1 (configuration not stated) | > 100 µM | > 100 | > 100 µM | > 100 | > 100 | – | 55 µM | > 100 µM | 55.6 | > 100 µM | > 100 µM |
| Cc1cc(S(=O)(=O)Nc2n[nH]c(Nc3ccccc3)n2)c(S)cc1Cl | > 10 µM | > 10 | > 10 µM | > 10 | > 10 | > 10 | > 10 µM | > 10 µM | > 10 | > 10 µM | – |
| CCOC(=O)CCC1(C(=O)OC)CCCC1=O (configuration not stated) | – | – | – | – | – | > 100 | > 100 µM | > 100 µM | – | > 100 µM | > 100 µM |
| CC(=O)Oc1ccc2cc(Oc3ccc(Cl)cc3)c(=O)oc2c1 | > 100 µM | 78.7 | > 100 µM | 83.8 | – | 57.8 | > 100 µM | > 100 µM | – | > 100 µM | > 100 µM |
| CCOC(=O)C1C/C(C)=C(/C)SCCCS1 (configuration not stated) | – | > 100 | > 100 µM | – | > 100 | > 100 | > 100 µM | > 100 µM | > 100 | > 100 µM | > 100 µM |
| CC1=NN(C(=O)CC(=O)Nc2cccc(Cl)c2)C(=O)C1N=Nc1ccc(S(N)(=O)=O)cc1 (configuration not stated) | > 100 µM | – | > 100 µM | – | – | > 100 | > 100 µM | > 100 µM | – | > 100 µM | > 100 µM |
| CCCCc1ccc2[n+](c1)C(C(=O)OCC)=PC2 (configuration not stated) | > 100 µM | > 100 | > 100 µM | > 100 | – | > 100 | > 100 µM | > 100 µM | > 100 | > 100 µM | > 100 µM |
| O=c1[nH]c(=O)n(C2CC(O)C(CO)O2)cc1C#Cc1ccc(C(F)(F)F)cc1 (configuration not stated) | – | – | > 100 µM | – | – | > 100 | > 100 µM | > 100 µM | – | > 100 µM | > 100 µM |
| C/C(=N\N(C)C)C(CN(C)C)C(c1ccccc1)c1c(O)c2ccccc2oc1=O (configuration not stated) | – | – | > 100 µM | – | – | > 100 | > 100 µM | > 100 µM | – | > 100 µM | > 100 µM |
| CC1(C)CC(=O)C(/C=N/c2nc(-c3ccc(Br)cc3)cs2)=C(O)C1 | 63.3 µM | > 100 | > 100 µM | 37.8 | > 100 | 62.1 | – | > 100 µM | 76.5 | > 100 µM | > 100 µM |
| O=C1CCC2(CCC(=O)NC2=O)C(=O)N1 | – | – | – | – | – | > 100 | > 100 µM | > 100 µM | – | > 100 µM | – |
| CCCCCCCCCCCCC(=O)NCC(=O)NC(Cc1ccccc1)C(=O)Oc1ccc([N+](=O)[O-])cc1 (configuration not stated) | > 100 µM | > 100 | – | > 100 | > 100 | > 100 | – | > 100 µM | > 100 | > 100 µM | – |
| c1ccc(C2=NN3CN(N2)c2ccccc2OCCCOc2ccccc23)cc1 | – | – | > 100 µM | – | – | > 100 | > 100 µM | > 100 µM | – | > 100 µM | – |
| Brc1ccc(N2C[N+](c3ccc(Br)cc3)=NC(c3ccccc3)=N2)cc1 | 33.3 µM and > 100 µM | – | 35.3 µM and > 100 µM | – | – | – | 27.7 µM and > 100 µM | 29.5 µM and > 100 µM | – | 26.4 µM and > 100 µM | 34.1 µM and > 100 µM |
| CN(C)c1ccc(C(=NNC(=O)c2cc3ccccc3[nH]2)c2ccc(N(C)C)cc2)cc1 | 45.7 µM | > 66.8 | > 100 µM | > 44.8 | – | 1.81 | – | 19.8 µM | 0.371 | 24.9 µM | 31.8 µM |
| COc1cc(C2SCC(=O)N2NC(=O)c2ccc(NC(C)=O)cc2)cc(OC)c1OC (configuration not stated) | – | – | > 100 µM | > 100 | > 100 | > 100 | > 100 µM | > 100 µM | > 100 | > 100 µM | > 100 µM |
| Cc1ccc(-c2cc(-c3ccc(Cl)cc3)nc(/N=C3\C(=O)N(CN4CCCCC4)c4ccc(Cl)cc43)n2)cc1 | 64.7 µM | > 100 | > 100 µM | > 100 | 62.4 | > 100 | – | 44.6 µM | 42.9 | 92.5 µM | 51.2 µM |
| Cc1ccc2c(c1)c(=O)c1c(NCCN(C)C)ccc3nnn2c31 | 12.3 µM | – | 12.9 µM | – | – | > 42.8 | 7.63 µM | 15.9 µM | – | 17.7 µM | 11.5 µM |
